Measured values reported in patent publication US11413354B2, “N-acetylgalactosamino dendron-clearing agent for dota-pretargeted radioimmunotherapy” (priority 2018, dated 2022).

Assays:
[1] = test system: GPA33-expressing SW1222 xenografts; assay: Absorbed dose estimates for PRIT+[^177Lu]LuDOTA-Bn including dendron-CA CCA-16-DOTA-Y^3+; type: in vivo, nude mice; details: with dendron-CA; bone marrow as dose-limiting organ
Experimental: Absorbed dose estimates for PRIT+[^177Lu]LuDOTA-Bn including dendron-CA CCA-16-DOTA-Y^3+: In order to calculate absorbed doses for PRIT+[[…]]LuDOTA-Bn including dendron-CA (the clearing agent of the present technology), groups of nude mice bearing GPA33-expressing SW1222 xenografts (n=5/group) were injected i.v. with the BsAb huA33-C825 (250 μg; 1.19 nmol) 28 h prior and i.v. with dendron-clearing agent CCA-16-DOTA-Y^3+ (25 μg; 2.76 nmol) 4 h prior to administration of [^177Lu]LuDOTA-Bn (20 pmol, 3.7 MBq [100 μCi]). These mice were sacrificed at 1, 4, 24, or 48 h p.i. of [^177Lu]LuDOTA-Bn for biodistribution assay. For each tissue, the non-decay-corrected time-activity concentration data were fitted using Excel to a 1-component, 2-component, or more complex exponential function as appropriate, and analytically integrated to yield the cumulated activity concentration per unit administered activity (MBq-h/g per MBq). The ^177Lu equilibrium dose constant for non-penetrating radiations (8.49 g-cGy/MBq-h) was used to estimate the tumor-to-tumor and select organ-to-organ self-absorbed doses, assuming complete local absorption of the ^177Lu beta rays only, and ignoring the gamma ray and non-self dose contributions.

[2] = test system: SW1222 xenografts (anti-GPA33 PRIT); assay: Optimized PRIT+[^177Lu]LuDOTA-Bn including dextran-CA (Cheal et al. 2016): dosimetry and therapy; type: in vivo, mice; details: with dextran-CA; bone marrow as dose-limiting organ
Description: See Cheal et al., Eur J Nucl Med Mol Imaging 43: 925 (2016). […] Cheal et al., Eur J Nucl Med Mol Imaging 43: 925 (2016).
Based on human normal-tissue radiation dose tolerance estimates derived from clinical observations (Marks, et al., Int J Radiat Oncol Biol Phys. 76:S10-9 (2010)) the maximum tolerated doses (MTDs) are 250 cGy for bone marrow, 1,500 cGy for lung, 3,000 cGy for liver, and 2,000 cGy for kidney. […] At this activity, the estimated absorbed dose delivered to tumor would be 18,292 cGy (183 Gy), with 250 cGy to blood (marrow) and 1,473 cGy to kidney.

[3] = test system: SW1222 xenografts (anti-GPA33 PRIT); details: with dextran-CA, cited from earlier work
[4] = test system: SW1222 tumor (same animal model); details: 24 h p.i.; 1.85-8.8 MBq, 10-50 pmol; cited from earlier work

Substance: ^177Lu-aminobenzylDOTA [[^177Lu]LuDOTA-Bn]
- maximum tolerated pretargeted activity [1]: 21 MBq
- maximum tolerated pretargeted activity [2]: 278 MBq
- CR frequency ([3]; 111.0 MBq delivered in a fractionated dose strategy): 100%
- survival beyond 140 days ([3]; 111.0 MBq fractionated): two of nine mice
- treatment-related toxicity ([3]; effective treatment): no major treatment-related toxicities observed
- mean tumor uptake [4]: ~8 % ID/g
